From US11339142B2, “Di-substituted pyrazole compounds for the treatment of diseases” (FGH BIOTECH, INC., priority 2016, dated 2022)

Key:
[1] = tested on: SCD1 expression; assay: Quantitative PCR (qPCR) inhibition assay, SCD1 mRNA expression in Hep G2 cells; assay type: cell-based; conditions: Homo sapiens, HepG2 cells, 24 hours incubation, mRNA by qPCR, read-out: SCD1 Inhibition Percentage (%) at 1 μM
Description: Hep G2 cells were obtained from ATCC and grown in DMEM supplemented with 10% FBS in a 5% CO2 incubator at 37° C. For the assay the cells were plated in 96 well plates at a concentration of 75,000 cells/well in DMEM with 5% FBS. The compounds were serially diluted in DMSO from 30 to 0.1 mM and then diluted 1:1000 in growth medium. The medium was added to the cells in duplicate 24 hours after plating. After 24 hours of incubation the RNA was isolated from the cells using the RNAqueous®-96 Total RNA Isolation Kit (Ambion). The eluted RNA was reverse transcribed using the Cells-to-Ct kit reverse transcriptase (Ambion). For the quantitative PCR the cDNA was analyzed using the Power SYBR® Green PCR Master Mix (Applied Biosystems) and gene specific primers. The reaction was run on an ABI7300 thermocycler and the instrument software was used to determine the Ct values. The fold change of mRNA expression relative to the vehicle control was calculated using the method by Livak. Primer sequence was as follows: SCD1, 5′-[…]-3′/5′-[…]-3′.
(§1) All data for Biological Examples 1a and 1b were measured in HepG2 cells. % inhibition of SCD1 expression, % inhibition of PCSK9 expression, and PCSK9 IC50 data are provided in Table 1. NA means the compound was not active at the concentration tested.

[2] = tested on: PCSK9 expression; assay: Quantitative PCR (qPCR) inhibition assay, PCSK9 mRNA expression in Hep G2 cells; assay type: cell-based; conditions: Homo sapiens, HepG2 cells, 24 hours incubation, mRNA by qPCR; for inhibition at 0.32 µM: 320 nM, read-out: PCSK9 Inhibition Percentage (%) at 320 nM
Description: Hep G2 cells were obtained from ATCC and grown in DMEM supplemented with 5% FBS in a 5% CO2 incubator at 37° C. For the assay the cells were plated in 24 well plates at a concentration of 100,000 cells/well in DMEM with 5% FBS. The compounds were serially diluted in DMSO from 0.1 to 20 mM and then diluted 1:1000 in growth medium. The medium was added to the cells in duplicate 24 hours after plating. After 24 hours of incubation the RNA was isolated from the cells using the illustra RNAspin Mini kit (GE Healthcare). For the quantitative PCR the RNA was analyzed using the Power SYBR® Green PCR Master Mix (Applied Biosystems) and gene specific primers. The reaction was run on a StepOnePlus Real-Time PCR System (Thermo Fisher Scientific) and the instrument software was used to determine the Ct values. The fold change of mRNA expression relative to the vehicle control was calculated. Primer sequence was as follows: PCSK9, 5′-[…]-3′/5′-[…]-3′.
as §1

Row | IC50 [2] | SMILES | inhibition at 1 µM [1] | inhibition at 0.32 µM [2]
1 |  | CCCn1cc(-n2cc(-c3ccc(OC4CCCC4)nc3C)cn2)ccc1=O [Example 1, 5-(4-(6-(cyclopentyloxy)-2-methylpyridin-3-yl)-1H-pyrazol-1-yl)-1-propylpyridin-2(1H)-one] | ≥ 40% | 
2 |  | CCCn1cc(-n2cc(-c3ccc(OC(C)C)nc3C)cn2)ccc1=O [Example 2] | ≥ 40% | 
3 |  | CCCn1cc(-n2cc(-c3ccc(OC(C)CC)nc3C)cn2)ccc1=O (stereo not shown) [Example 3] | ≥ 40% | 10 to 40%
4 |  | CCCn1cc(-n2cc(-c3ccc(OC(F)(F)F)cc3Cl)cn2)ccc1=O [Example 4] | ≥ 40% | 
5 |  | CCCn1cc(-n2cc(-c3ccc(OCC(C)C)nc3C)cn2)ccc1=O [Example 5] | ≥ 40% | ≥ 40%
6 | 150 to 600 nM | CCCn1cc(-n2cc(-c3ccc(OCC4CC4)nc3C)cn2)ccc1=O [Example 6] | ≥ 40% | 10 to 40%
7 |  | CCCn1cc(-n2cc(-c3ccc(OC4CCC4)nc3C)cn2)ccc1=O [Example 7] | ≥ 40% | 
8 | 150 to 600 nM | CCCn1cc(-n2cc(-c3ccc(OCC(C)C)cc3Cl)cn2)ccc1=O [Example 8] |  | ≥ 40%
9 |  | CCCn1cc(-n2cc(-c3ccc(O[C@@H](C)CC)nc3C)cn2)ccc1=O [Example 9] | ≥ 40% | ≥ 40%
10 |  | CCCn1cc(-n2cc(-c3ccc(OC(C)C4CC4)nc3C)cn2)ccc1=O (stereo not shown) [Example 11] | ≥ 40% | 
11 |  | CCCn1cc(-n2cc(-c3ccc(OC4CC4)nc3C)cn2)ccc1=O [Example 12] | 10 to 40% | 
12 | ≤ 150 nM | CCCn1cc(-n2cc(-c3ccc(OCC4(CO)CC4)nc3C)cn2)ccc1=O [Example 13] |  | ≥ 40%
13 | ≤ 150 nM | CCCn1cc(-n2cc(-c3ccc(OCC(C)(C)CO)nc3C)cn2)ccc1=O [Example 14] |  | ≥ 40%
14 | ≤ 150 nM | CCCn1cc(-n2cc(-c3ccc(OCC4(CO)COC4)nc3C)cn2)ccc1=O [Example 15] |  | ≥ 40%
15 | ≤ 150 nM | CCCn1cc(-n2cc(-c3ccc(OCC4(CO)CCC4)nc3C)cn2)ccc1=O [Example 16] |  | ≥ 40%
16 |  | CCCn1cc(-n2cc(-c3ccc(S(=O)(=O)CC4CC4)cc3Cl)cn2)ccc1=O [Example 19] | ≥ 40% | 
17 |  | CCCn1cc(-n2cc(-c3ccc(S(=O)(=O)C(CC)CC)cc3Cl)cn2)ccc1=O [Example 20] | ≥ 40% | 
18 |  | CCCn1cc(-n2cc(-c3ccc(S(=O)(=O)C(C)C)cc3F)cn2)ccc1=O [Example 21] | ≥ 40% | 
19 |  | CCCn1cc(-n2cc(-c3ccc(S(=O)(=O)C(C)C)cc3)cn2)ccc1=O [Example 25] | ≥ 40% | 
20 |  | CCCn1cc(-n2cc(-c3ccc(OCC4CC4)cc3Cl)cn2)ccc1=O [Example 26] |  | ≥ 40%
21 |  | CCCn1cc(-n2cc(-c3ccc(OCC4CC4)c(F)c3)cn2)ccc1=O [Example 27] |  | < 10%
22 |  | CCCn1cc(-n2cc(-c3cc(F)c(OCC4CC4)c(F)c3)cn2)ccc1=O [Example 28] |  | < 10%
23 |  | CCCn1cc(-n2cc(-c3ccc(OCC4CC4)c(C)c3)cn2)ccc1=O [Example 29] |  | < 10%
24 |  | CCCn1cc(-n2cc(-c3ccc(OCC4CC4)cc3F)cn2)ccc1=O [Example 30] |  | 10 to 40%
25 |  | CCCn1cc(-n2cc(-c3ccc(OCC(C)C)cc3F)cn2)ccc1=O [Example 31] |  | 10 to 40%
26 |  | CCCn1cc(-n2cc(-c3ccc(OCC4(CO)CC4)cc3Cl)cn2)ccc1=O [Example 32] | ≥ 40% | 
27 |  | CCCn1cc(-n2cc(-c3ccc(OCCCO)cc3Cl)cn2)ccc1=O [Example 33] | ≥ 40% | 

Row | IC50 [2] | SMILES | inhibition at 1 µM [1] | inhibition at 0.32 µM [2]
28 |  | CCCn1cc(-n2cc(-c3ccc(OC(C)C4CC4)cc3Cl)cn2)ccc1=O (stereo not shown) [Example 34] | ≥ 40% | 
29 |  | CCCn1cc(-n2cc(-c3ccc(O[C@@H](C)CC)cc3Cl)cn2)ccc1=O [Example 35] | ≥ 40% | 
30 |  | CCCn1cc(-n2cc(-c3ccc(O[C@H](C)CC)cc3Cl)cn2)ccc1=O [Example 36] | ≥ 40% | 
31 |  | CCCn1cc(-n2cc(-c3ccc(OC(C)CO)cc3Cl)cn2)ccc1=O (stereo not shown) [Example 37] | ≥ 40% | 
32 |  | CCCn1cc(-n2cc(-c3ccc(OC(CC)CC)cc3Cl)cn2)ccc1=O [Example 38] |  | ≥ 40%
33 | 150 to 600 nM | CCCn1cc(-n2cc(-c3ccc(OCC4(CO)COC4)cc3Cl)cn2)ccc1=O [Example 39] |  | ≥ 40%
34 |  | CCCn1cc(-n2cc(-c3ccc(OC(C)C)cc3Cl)cn2)ccc1=O [Example 40] | 10 to 40% | 
35 |  | CCCn1cc(-n2cc(-c3ccc(O[C@H](C)CC)cc3)cn2)ccc1=O [Example 41] | ≥ 40% | 
36 |  | CCCn1cc(-n2cc(-c3ccc(OC(C)CO)cc3)cn2)ccc1=O (stereo not shown) [Example 42] | 10 to 40% | 
37 |  | CCCn1cc(-n2cc(-c3ccc(OC)cc3Cl)cn2)ccc1=O [Example 45, 5-(4-(2-chloro-4-methoxyphenyl)-1H-pyrazol-1-yl)-1-propylpyridin-2(1H)-one] | 10 to 40% | 
38 |  | CCCn1cc(-n2cc(-c3ccc(OC)cc3)cn2)ccc1=O [Example 46, 5-(4-(4-methoxyphenyl)-1H-pyrazol-1-yl)-1-propylpyridin-2(1H)-one] | 10 to 40% | 
39 |  | CCCn1cc(-n2cc(-c3ccc(OC(C)CCO)cc3Cl)cn2)ccc1=O (stereo not shown) [Example 47, 5-(4-(2-chloro-4-((4-hydroxybutan-2-yl)oxy)phenyl)-1H-pyrazol-1-yl)-1-propylpyridin-2(1H)-one] | ≥ 40% | 
40 |  | CCCn1cc(-n2cc(-c3ccc(OCC(C)(C)CO)cc3Cl)cn2)ccc1=O [Example 48, 5-(4-(2-chloro-4-(3-hydroxy-2,2-dimethylpropoxy)phenyl)-1H-pyrazol-1-yl)-1-propylpyridin-2(1H)-one] | ≥ 40% | 
41 | ≤ 150 nM | CCCn1cc(-n2cc(-c3ccc(OCC4(CO)CCC4)cc3Cl)cn2)ccc1=O [Example 49, 5-(4-(2-chloro-4-((1-(hydroxymethyl)cyclobutyl)methoxy)phenyl)-1H-pyrazol-1-yl)-1-propylpyridin-2(1H)-one] |  | ≥ 40%
42 |  | Cc1nc(OC2CCCC2)ccc1-c1cnn(-c2ccc(=O)n(CC(C)C)c2)c1 [Example 50, 5-(4-(6-(cyclopentyloxy)-2-methylpyridin-3-yl)-1H-pyrazol-1-yl)-1-isobutylpyridin-2(1H)-one] | ≥ 40% | 
43 |  | CCCn1cc(-n2cc(-c3ccc(S(=O)(=O)CC)cc3)cn2)ccc1=O [Example 51, 5-(4-(4-(ethylsulfonyl)phenyl)-1H-pyrazol-1-yl)-1-propylpyridin-2(1H)-one] | ≥ 40% | 
44 |  | CCCn1cc(-n2cc(-c3ccc(S(=O)(=O)C(C)C)nc3C)cn2)ccc1=O [Example 52, 5-(4-(6-(isopropylsulfonyl)-2-methylpyridin-3-yl)-1H-pyrazol-1-yl)-1-propylpyridin-2(1H)-one] |  | < 10%
45 |  | CCCn1cc(-n2cc(-c3cnc(OC(C)C)nc3)cn2)ccc1=O [Example 53, 5-(4-(2-isopropoxypyrimidin-5-yl)-1H-pyrazol-1-yl)-1-propylpyridin-2(1H)-one] |  | < 10%
46 |  | CCCn1cc(-n2cc(-c3cnc(S(=O)(=O)C(C)C)nc3)cn2)ccc1=O [Example 54, 5-(4-(2-(isopropylsulfonyl)pyrimidin-5-yl)-1H-pyrazol-1-yl)-1-propylpyridin-2(1H)-one] |  | < 10%
47 |  | CCCn1cc(-n2cc(-c3ccc(S(=O)(=O)CC)cc3Cl)cn2)ccc1=O [Example 55, 5-(4-(2-chloro-4-(ethylsulfonyl)phenyl)-1H-pyrazol-1-yl)-1-propylpyridin-2(1H)-one] | ≥ 40% | 
48 |  | CCCn1cc(-n2cc(-c3ccc(S(=O)(=O)C4CC4)cc3)cn2)ccc1=O [Example 64] | ≥ 40% | 
49 | ≤ 150 nM | CCCn1cc(-n2cc(-c3ccc(S(=O)(=O)C4CCC4)cc3C)cn2)ccc1=O [Example 78] |  | ≥ 40%
50 |  | CCCn1cc(-n2cc(-c3ccc(S(=O)(=O)C4CCC(F)(F)CC4)cc3C)cn2)ccc1=O [Example 79] |  | 10 to 40%
51 |  | CCCn1cc(-n2cc(-c3ccc(S(=O)(=O)C4CC(F)(F)C4)cc3C)cn2)ccc1=O [Example 80] |  | 10 to 40%
52 | ≤ 150 nM | CCCn1cc(-n2cc(-c3ccc(OCC4(CO)CC4)cc3C)cn2)ccc1=O [Example 81] |  | ≥ 40%
53 |  | CCCn1cc(-n2cc(-c3ccc(OCC(F)(F)CO)nc3C)cn2)ccc1=O [Example 82] |  | ≥ 40%
